Measured values published in patent publication US20130263297A1, “METHODS OF TREATING CANCER” (Cedars-Sinai Medical Center, priority 2010, published 2013).
“Also recorded” adds a separate entry of the source.

Columns and labels:
RAW 264.7 cells = assay: In vitro osteoclastogenesis assay (co-culture of RAW 264.7 osteoclast precursor cells with prostate cancer cells, TRAP staining); assay type: cell-based, mouse
Description: The co-cultures of osteoclast precursor cells (RAW 264.7 cells) and prostate cancer cells were performed in 48-well plate containing 500 μl of α-MEM media supplemented with 10% FBS and were set up in quadruplicates. Osteoclast precursor cells were seeded with prostate cancer cells in an 8:1 ratio (15,000 RAW 264.7 cells and 1,875 prostate cancer cells) per well. Recombinant mouse RANKL (100 ng/ml, provided by Dr. Xu Feng), was added to the assay as the positive control. Additionally, recombinant OPG (1 μg/ml) was added to designated wells to block RANKL-mediated increased osteoclastogenesis. The cells were checked under the microscope daily from day-4 to day-7. Cells were fixed and subjected to tartrate-resistant acid phosphatase (TRAP) staining (Sigma-Aldrich, Inc., St. Louis, Mo.). TRAP^+ multinucleated cells (3 nuclei) in the entire well were counted as mature osteoclasts and the images were taken under light microscopy.

[1] = tested on: RANKL-expressing prostate cancer cells; assay: Stem cell and neuroendocrine marker expression; assay type: cell-based
LNCaP-RANKL cells = assay: Soft agar (anchorage-independent) colony formation, LNCaP-RANKL; assay type: cell-based, human; details: addition of OPG
[2] = tested on: prostate (ARCaP and LNCaP) and osteosarcoma (MG-63 and Saos-2) cells; normal prostate (PrEC and RWPE-1) or bone (RAW264.7) cells; assay: RANKL induction of its own expression, cancer versus normal cells; assay type: cell-based
human cancer cells = assay: Bone colonization by human cancer cells (FIG. 34); assay type: in vivo; details: recombinant sRANKL

For osteoprotegerin [OPG], the “formation of mature osteoclasts induced by ARCaPE-RANKL and LNCaP-RANKL cells” value (RAW 264.7 cells; addition of OPG (1 μg/ml) to co-culture with RAW264.7) was “blocked; also recorded: decreased by approximately two-fold”, the “osteoclastogenesis induced by Neo-transfected control cells” value (RAW 264.7 cells; addition of OPG to co-culture with RAW264.7) was “very minimal blocking effects” and the “expression of neuroendocrine markers” value [1] was “blocked”. The “expression of stem cell markers” value [1] was “antagonized” and the “soft agar colony formation (tumorigenicity) of LNCaP-RANKL cells” value (LNCaP-RANKL cells) was “attenuated”.

B1: RANKL: trimerized recombinant RANKL protein (rRANKL), receptor activator of NF-KB ligand (protein, UniProt O14788 69-317, looked up)
extracellular domain: YFRAQMDPNRISEDGTHCIYRILRLHENADFQDTTLESQDTKLIPDSCRRIKQAFQGAVQKELQHIVGSQHIRAEKAMVDGSWLDLAKRSKLEAQPFAHLTINATDIPSGSHKVSLSSWYHDRGWAKISNMTFSNGKLIVNQDGFYYLYANICFRHHETSGDLATEYLQLMVYVTKTSIKIPSSHTLMKGGSTKYWSGNSEFHFYSINVGGFFKLRSGEEISIEVSNPSLLDPDQDATYFGAFKVRDID
modifications: extracellular domain trimerized
In the case of B1, the “ability of recombinant RANKL to induce its own expression” value [2] is reported as “restricted to cancer” and the “bone colonization by human cancer cells” value (human cancer cells) is reported as “promotes bone colonization”.
